Data set [1] in a line: mn = molality of the nth substance listed, in mol/kg. The note with it: 101 kPa, Liquid, Pycnometric method, m1 = 1.5.
For data set [2] the following is noted: 101.33 kPa, Liquid, Pycnometric method.

± gives the expanded uncertainty stated by the source.

Consider four compounds from the NIST ThermoML archive (doi:10.1016/j.tca.2006.04.004).

The term mass density denotes the mass of a sample divided by its volume.

Take `O=[N+]([O-])[O-].[K+]` [potassium nitrate] + O: the mass density in data set [1] (298.15 K) is listed as 1086.9 ± 0.6 kg/m3; in data set [1] (303.15 K), 1085 ± 0.6 kg/m3; in data set [1] (308.15 K), 1083 ± 0.6 kg/m3; in data set [1] (313.15 K) it was 1080.6 ± 0.6 kg/m3; in data set [1] (318.15 K), 1077.9 ± 0.6 kg/m3; in data set [1] (323.15 K) it was 1075 ± 0.6 kg/m3.
As to `[Cl-].[Na+]` [sodium chloride] + O, the mass density in data set [1] (298.15 K) was determined as 1058.8 ± 0.6 kg/m3; in data set [1] (303.15 K), 1056.1 ± 0.6 kg/m3; in data set [1] (308.15 K), 1053.8 ± 0.6 kg/m3; in data set [1] (313.15 K), 1051.4 ± 0.6 kg/m3; in data set [1] (318.15 K), 1048.8 ± 0.6 kg/m3; in data set [1] (323.15 K), 1046.2 ± 0.6 kg/m3.
Consider `O=[N+]([O-])[O-].[Na+]` [sodium nitrate] + O, for which the mass density in data set [1] (298.15 K) came out at 1079.1 ± 0.6 kg/m3; in data set [1] (303.15 K), 1076.5 ± 0.6 kg/m3; in data set [1] (308.15 K) it was 1073.5 ± 0.6 kg/m3; in data set [1] (313.15 K), 1070.3 ± 0.6 kg/m3; in data set [1] (318.15 K), 1067 ± 0.6 kg/m3; in data set [1] (323.15 K), 1063.7 ± 0.6 kg/m3.
On to `O` [water], for which the mass density was 994.2 ± 0.5 kg/m3 in data set [2] (308.15 K), 990.3 ± 0.5 kg/m3 in data set [2] (318.15 K) and 987.9 ± 0.5 kg/m3 in data set [2] (323.15 K).
